This note sets out measurements from patent US11548888B2, “KRas G12C inhibitors” (Mirati Therapeutics, Inc., priority 2019, dated 2023).

The target in the experiment is T1, KRas G12C (Homo sapiens, UniProt P01116, G12C).
T1 construct: NCI-H358 cells (ATCC CRL-5807) express KRas G12C
T1 sequence (P01116 1-188 isoform P01116-2 G12C): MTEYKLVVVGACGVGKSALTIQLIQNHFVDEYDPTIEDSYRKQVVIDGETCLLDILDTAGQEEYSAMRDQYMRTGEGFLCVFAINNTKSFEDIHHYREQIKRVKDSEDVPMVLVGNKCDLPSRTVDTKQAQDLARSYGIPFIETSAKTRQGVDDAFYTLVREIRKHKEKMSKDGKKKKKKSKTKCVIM
As to the kind of experiment: Inhibition of KRas G12C-dependent cell growth: Phospho-ERK in NCI-H358 cells. It is filed as cell-based. The conditions noted are these: NCI-H358 cells expressing KRas G12C; Phospho-ERK (Thr202/Tyr204) normalized to GAPDH; 3 hours compound; 4 parameter fit. The procedure, abridged:
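Phospho-ERK read-out in KRas G12C-expressing NCI-H358 cells after 3 h compound treatment (final DMSO 0.5%), by in-cell infrared immunodetection. Signal normalized to GAPDH and to DMSO controls. 4-parameter curve fit gave IC50.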
For `C=C(F)C(=O)N1CCN(c2nc(OCC3CCN3C(C)(C)C)nc3c(F)c(-c4cccc5cccc(Cl)c45)ncc23)C[C@@H]1CC#N` (stereo partly drawn) [Example 59, 2-[(2S)-4-[2-[(1-tert-butylazetidin-2-yl)methoxy]-7-(8-chloro-1-naphthyl)-8-fluoro-pyrido[4,3-d]pyrimidin-4-yl]-1-(2-fluoroprop-2-enoyl)piperazin-2-yl]acetonitrile], the IC50 (usually the concentration needed to halve the response being measured) was 60 nM. Next, `C=C(F)C(=O)N1CCN(c2nc(OC[C@@H]3C[C@@H](OC)CN3C)nc3c(F)c(-c4cccc5ccc(F)c(Cl)c45)ncc23)C[C@@H]1CC#N` [Example 113]: 13 nM; `C=CC(=O)N1CC[C@@H]2[C@H]1CN2c1ncnc2c(F)c(-c3cccc4cc(OC)ccc34)ncc12` [Example 266]: 10000 nM.
